Test results taken from patent US6881756B2, “Method for treating skin disorders” (Johnson & Johnson Consumer Companies, Inc., priority 2001, dated 2005).

Assays:
Albino male CD-1 mice [1] = experiment: Neurosensory (neurogenic) inflammation model: resiniferatoxin-induced ear edema; type: in vivo, mouse; conditions: for activity in the neurosensory inflammation model (in words): resiniferatoxin ear edema model, overall; for % Inhibition of the Ear Edema: 20 μl to left ear, biopsy weight at 30 minutes
Source text: Neurosensory inflammation, also referred to as neurogenic inflammation, is a type of inflammation triggered by sensory nerve activation in skin. Certain natural substances that act on vanilloid receptors cause the nerves (C-fibers) to release inflammatory neuropeptides such as substance P and calcitonin gene-related peptide. In mouse skin, an edema response rapidly occurs upon application of either the vanilloid receptor activators, capsaicin or resiniferatoxin. Compounds that inhibit the response to neurosensory stimulation could be useful as topical analgesics, itch inhibitors or soothing agents for irritated or damaged skin. See U.S. Pat. No. 6,090,811.
Albino male CD-1 mice, 7-9 weeks old, were used. Resiniferatoxin alone (0.05%) or a combination of 0.05% resiniferatoxin with test compound was made in acetone. A 20-μl volume of the solutions was applied to the left ears (10 mice per treatment group). The right ear was not treated. The mice were sacrificed by CO2 inhalation 30 minutes after applying the solutions. The left and right ears were removed and a 7-mm biopsy was removed from each ear and weighed. The difference in biopsy weights between the right and left ear was calculated. The percent inhibition was calculated by comparing treatments to resiniferatoxin alone. Anti-edema effects of compounds are evident as an inhibition of the increase in ear weight.

Albino male CD-1 mice [2] = experiment: Allergic contact dermatitis model: oxazolone-induced ear swelling; type: in vivo, mouse; conditions: for % Inhibition of the Ear Swelling Response: 20 μL to left ear 1 hour after oxazolone challenge, ear biopsy weight at 24 hours
Description: Allergic contact dermatitis is an animal model of skin inflammation that mimics many aspects of human skin inflammation. See Young J M, De Young L M, Cutaneous Models of Inflammation for the Evaluation of Topical and Systemic Pharmacological Agents; In: Pharmacological Methods in the Control of Inflammation, Alan R. Liss, Inc, pp. 215-231 (1989). […] The inflammatory response is established by using oxazolone as the chemical sensitizer. A topical anti-inflammatory agent is assessed by measuring its ability to suppress the ear swelling reaction after applying a challenge dose of oxazolone to the ear followed by the test agent.
In this assay, the totarol (Mende-DEK Limited, Masterton, New Zealand) was evaluated against hydrocortisone, a steroid known to inhibit allergic contact dermatitis. Albino male CD-1 mice, 7-9 weeks old, were induced on the shaved abdomen with 50 μL of 3% oxazolone in acetone/corn oil (Day 0). On Day 5, a 20 μL volume of 2% oxazolone in acetone was applied to the dorsal left ear of the mouse. Test agents were applied to the left ear (20 μL) 1 hour after oxazolone challenge in a 70% ethanol/30% propylene glycol vehicle. The right ear was not treated. The mice were sacrificed by CO2 inhalation 24 hours after the oxazolone challenge, the left and right ears were removed and a 7-mm biopsy was taken from each ear and weighed. Anti-inflammatory effects of compounds are evident as an inhibition of the increase in ear weight.

Row | Structure (SMILES) | activity in the neurosensory inflammation model (in words) (Albino male CD-1 mice [1]) | % Inhibition of the Ear Edema (Albino male CD-1 mice [1]; topical dose 0.5% w/v with 0.05% resiniferatoxin in acetone) [%] | % Inhibition of the Ear Swelling Response (Albino male CD-1 mice [2]; topical dose 0.001% w/v) [%] | % Inhibition of the Ear Swelling Response (Albino male CD-1 mice [2]; topical dose 0.01% w/v) [%] | % Inhibition of the Ear Swelling Response (Albino male CD-1 mice [2]; topical dose 0.1% w/v) [%] | topical anti-inflammatory activity (in words) (Albino male CD-1 mice [2]; oxazolone allergic contact dermatitis model, overall) | % Inhibition of the Ear Swelling Response (Albino male CD-1 mice [2]; topical dose 0.03% w/v) [%] | % Inhibition of the Ear Swelling Response (Albino male CD-1 mice [2]; topical dose 0.3% w/v) [%] | % Inhibition of the Ear Swelling Response (Albino male CD-1 mice [2]; topical dose 1% w/v) [%] | activity compared with hydrocortisone (in words) (Albino male CD-1 mice [2]; totarol at its two highest doses vs highest dose of hydrocortisone) | % Inhibition of the Ear Edema (Albino male CD-1 mice [1]; topical dose 1% w/v with 0.05% resiniferatoxin in acetone) [%]
1 | CCCCC/C=C\C/C=C\C/C=C\C/C=C\CCCC(=O)NCc1ccc(O)c(OC)c1 [Arvanil, reference compound] | also active | 26.8 | – | – | – | – | – | – | – | – | –
2 | C[C@]12CCC(=O)C=C1CC[C@@H]1[C@@H]2[C@@H](O)C[C@@]2(C)[C@H]1CC[C@]2(O)C(=O)CO [Hydrocortisone, reference compound] | – | – | 36.0 | 65.5 | 84.2 | – | – | – | – | – | –
3 | CC(C)c1c(O)ccc2c1CC[C@H]1C(C)(C)CCC[C@]21C [Totarol] | highly effective | – | – | – | – | highly effective as a topical anti-inflammatory agent with dose-dependent inhibition of the inflammatory response | 44.6 | 80.0 | 82.3 | equivalent in activity to the highest dose of hydrocortisone | 46.6
